Measurements taken from ChEMBL document CHEMBL1949658, “3D-QSAR and 3D-QSSR models of negative allosteric modulators facilitate the design of a novel selective antagonist of human α4β2 neuronal nicotinic acetylcholine receptors” (Bioorg Med Chem Lett, 2012).

Tests used:
[1] = target: Neuronal acetylcholine receptor; alpha3/beta4 (Homo sapiens, UniProt P30926+P32297); experiment: Antagonist activity at human nAChR alpha3/beta4 receptor expressed in HEK ts201 cells assessed as calcium accumulation by fluorescence analysis; type: functional, cell-based
Neuronal acetylcholine receptor; alpha3/beta4, sequence (P30926 whole entry): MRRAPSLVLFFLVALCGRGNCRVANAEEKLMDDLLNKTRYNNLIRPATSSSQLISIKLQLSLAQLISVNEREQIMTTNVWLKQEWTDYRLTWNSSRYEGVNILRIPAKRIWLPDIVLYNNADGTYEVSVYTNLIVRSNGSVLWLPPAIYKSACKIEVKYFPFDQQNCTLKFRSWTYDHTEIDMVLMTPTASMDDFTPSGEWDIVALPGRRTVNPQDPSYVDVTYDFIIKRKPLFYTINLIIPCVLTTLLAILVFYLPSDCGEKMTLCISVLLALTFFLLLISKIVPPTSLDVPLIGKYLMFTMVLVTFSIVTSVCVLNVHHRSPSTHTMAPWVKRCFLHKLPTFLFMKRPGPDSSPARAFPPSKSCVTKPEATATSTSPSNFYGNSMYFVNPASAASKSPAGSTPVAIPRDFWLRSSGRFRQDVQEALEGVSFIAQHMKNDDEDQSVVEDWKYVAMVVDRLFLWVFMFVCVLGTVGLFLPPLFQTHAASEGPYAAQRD
Neuronal acetylcholine receptor; alpha3/beta4, sequence (P32297 whole entry): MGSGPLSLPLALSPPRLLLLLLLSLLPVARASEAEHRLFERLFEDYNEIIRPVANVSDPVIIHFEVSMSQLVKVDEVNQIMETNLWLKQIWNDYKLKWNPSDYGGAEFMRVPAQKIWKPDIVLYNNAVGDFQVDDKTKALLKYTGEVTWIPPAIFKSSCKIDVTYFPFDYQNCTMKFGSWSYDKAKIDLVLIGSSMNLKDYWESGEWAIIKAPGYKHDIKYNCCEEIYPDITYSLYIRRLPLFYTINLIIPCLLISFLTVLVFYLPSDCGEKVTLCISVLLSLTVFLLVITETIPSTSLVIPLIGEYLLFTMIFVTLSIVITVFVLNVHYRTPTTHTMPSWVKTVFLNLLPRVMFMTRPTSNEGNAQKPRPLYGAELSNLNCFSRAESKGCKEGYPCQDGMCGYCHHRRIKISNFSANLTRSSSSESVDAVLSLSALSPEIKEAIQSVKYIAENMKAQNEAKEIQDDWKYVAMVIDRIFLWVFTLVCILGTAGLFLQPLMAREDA

[2] = target: Neuronal acetylcholine receptor; alpha4/beta2 (Homo sapiens, UniProt P17787+P43681); experiment: Antagonist activity at human nAChR alpha4/beta2 receptor expressed in HEK ts201 cells assessed as calcium accumulation by fluorescence analysis; type: functional, cell-based
Neuronal acetylcholine receptor; alpha4/beta2, sequence (P17787 whole entry): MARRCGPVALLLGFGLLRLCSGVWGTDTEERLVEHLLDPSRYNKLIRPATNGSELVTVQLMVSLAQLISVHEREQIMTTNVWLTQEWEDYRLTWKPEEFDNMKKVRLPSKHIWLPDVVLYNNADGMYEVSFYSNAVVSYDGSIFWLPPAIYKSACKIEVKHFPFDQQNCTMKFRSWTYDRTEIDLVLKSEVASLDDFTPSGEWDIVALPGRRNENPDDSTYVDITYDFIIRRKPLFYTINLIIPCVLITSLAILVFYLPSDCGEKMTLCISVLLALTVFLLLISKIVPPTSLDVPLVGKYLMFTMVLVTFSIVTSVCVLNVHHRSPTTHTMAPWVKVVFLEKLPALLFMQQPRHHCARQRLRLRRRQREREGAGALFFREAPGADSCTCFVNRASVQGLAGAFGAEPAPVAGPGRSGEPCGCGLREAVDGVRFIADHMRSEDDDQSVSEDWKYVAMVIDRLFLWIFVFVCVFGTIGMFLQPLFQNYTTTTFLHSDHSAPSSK
Neuronal acetylcholine receptor; alpha4/beta2, sequence (P43681 whole entry): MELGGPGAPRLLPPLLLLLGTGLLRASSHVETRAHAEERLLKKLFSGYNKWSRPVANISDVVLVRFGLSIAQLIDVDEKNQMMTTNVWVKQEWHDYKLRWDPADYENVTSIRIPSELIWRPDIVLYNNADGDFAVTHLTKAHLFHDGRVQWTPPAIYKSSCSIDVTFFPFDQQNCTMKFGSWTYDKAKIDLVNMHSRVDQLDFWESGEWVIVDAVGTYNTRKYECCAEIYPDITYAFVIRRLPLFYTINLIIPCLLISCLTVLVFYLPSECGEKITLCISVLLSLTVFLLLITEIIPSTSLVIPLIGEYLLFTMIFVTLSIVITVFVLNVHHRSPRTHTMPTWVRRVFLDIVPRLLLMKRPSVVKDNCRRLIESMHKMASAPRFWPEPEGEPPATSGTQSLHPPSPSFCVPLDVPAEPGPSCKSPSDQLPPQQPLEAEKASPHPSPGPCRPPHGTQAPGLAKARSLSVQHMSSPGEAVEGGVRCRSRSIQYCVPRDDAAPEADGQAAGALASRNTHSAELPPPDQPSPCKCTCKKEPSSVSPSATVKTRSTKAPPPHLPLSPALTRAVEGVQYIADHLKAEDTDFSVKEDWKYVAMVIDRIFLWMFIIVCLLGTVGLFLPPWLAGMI

[3] = species: Homo sapiens; experiment: Selectivity ratio of IC50 for human nAChR alpha3/beta4 receptor to IC50 for human nAChR alpha4/beta2 receptor
[4] = Lipophilicity, log P of the compound; type: physicochemical; settings: octanol/water
[5] = species: Homo sapiens; experiment: Selectivity ratio of pIC50 for human nAChR alpha3/beta4 receptor to pIC50 for human nAChR alpha4/beta2 receptor

| SMILES | IC50 ([1]; read-out: IC50) [µM] | IC50 ([2]; read-out: IC50) [µM] | Ratio IC50 [3] | logP [4] | Ratio pIC50 [5] | IC50 ([1]; read-out: pIC50 (converted)) [µM] | IC50 ([2]; read-out: pIC50 (converted)) [µM] |
| --- | --- | --- | --- | --- | --- | --- | --- |
| O=C(Nc1ccccn1)c1ccccc1-c1ccccc1 | 17.5 | 13.6 | 1.3 | – | – | – | – |
| O=C(NCc1ccccc1)c1ccccc1-c1ccccc1 | 7.6 | 7.5 | 1 | – | – | – | – |
| O=C(Nc1ccccc1)c1ccccc1-c1ccccc1 | 10.7 | 6.9 | 1.6 | – | – | – | – |
| O=C(Nc1cccc2ccccc12)c1ccccc1-c1ccccc1 | 18.2 | 10.7 | 1.8 | – | – | – | – |
| O=C(OCC1CCCN(CCCc2ccccc2)C1)c1ccccc1-c1ccccc1 (stereo not given) | > 100 | 13.5 | – | 5.9 | 3.87 | – | – |
| O=C(OC1CCCN(C(=O)CCc2ccccc2)C1)c1ccccc1-c1ccccc1 (stereo not given) | 6 | 4.3 | 1.5 | – | – | – | – |
| O=C(Nc1ccncn1)c1ccccc1-c1ccccc1 | 39.6 | 25.1 | 1.6 | – | – | – | – |
| O=C(OCC1CCCN(C(=O)CCc2ccccc2)C1)c1ccccc1C(F)(F)F (stereo not given) | 6.3 | 3.9 | 2.1 | – | – | – | – |
| O=C(NCc1cccc2ccccc12)c1ccccc1-c1ccccc1 | > 100 | 13.9 | > 10 | 5 | – | – | – |
| O=C(OCC1CCN(C(=O)CCc2ccccc2)CC1)c1ccccc1-c1ccccc1 | 9.4 | 5.9 | 1.4 | – | – | – | – |
| Cc1ccc(OCCN2CCCC(COC(=O)c3ccccc3N3C(=O)CC(C)C3=O)C2)cc1 (stereo not given) | – | – | – | – | 0.22 | 18.6 | 11.2 |
